# Laboratory results from patent US20210115509A1, “BIOMARKER FOR IDENTIFYING SPECIFIC EXPOSURE TO KETONES AND METHOD OF IDENTIFICATION USING THE SAME” (KOREA INSTITUTE OF SCIENCE AND TECHNOLOGY, priority 2019, published 2021).
# Columns and labels:
# [1] = system: BEAS-2B human bronchial epithelial cell line; assay: MTT assay, cytotoxicity of ketone compounds in BEAS-2B cell line; format: cell-based; details: BEAS-2B, 48 hours, MTT
# Experimental: BEAS-2B (Korean Cell Line Bank), a human bronchial epithelial cell line, was cultured using RPMI 1640 medium (Gibco, USA) supplemented with 10% FBS until the cells grew to about a confluence of 70 to 80% in a 100 mm dish.
# Among ketones belonging to mVOCs (microbial volatile organic compounds) exposed to the environment, acetone, 2-butanone, 2-pentanone, 2-hexanone and 2-heptanone were selected, and the chemicals were dissolved in filtered distilled water (DW). A vehicle concentration was set to 0.1% or less in all experiments.
# MTT assay using a BEAS-2B cell line was performed in accordance with the method of Mossman et al. (J. Immunol. Methods, 65, 55-63, 1983).
# Specifically, the cells were seeded at a density of 3.5×10^4 cells/well in a 24-well plate and treated with the five ketone compounds dissolved in filtered distilled water, prepared in Example 1-2. After 48 hours, the result was mixed with 5 mg/ml of MTT (3-4,5-dimethylthiazol-2,5-diphenyltetrazolium bromide), added to a tube and incubated at 37° C. for 3 hours. Then, the medium was removed, the formed formazan crystal was dissolved in 500 μl of DMSO, and then 100 μl of the solution was transferred to a 96-well plate to measure an OD (optical density) value at 540 nm.
# [2] = system: BEAS-2B human bronchial epithelial cell line; assay: Gene expression change by high-throughput RNA sequencing (NextSeq 500) in ketone-exposed BEAS-2B cells; format: cell-based
# Experimental: RNA was extracted from cell samples of ketone-exposed and non-ketone-exposed groups using a TRIzol reagent (Life Technologies, USA) in accordance with the manufacturer's directions to isolate total RNA and the total RNA was purified using a RNeasy mini kit (Qiagen, USA). The concentration of each total RNA sample was determined by a ND-2000 spectrophotometer (Thermo Inc., DE, USA) as a spectrophotometer and Agilent 2100 Bioanalyzer (Agilent Technologies, USA).
# The establishment of libraries from the total RNA obtained in Example 2-1 in the experimental group and the normal control group exposed to the ketones was carried out using a QuantSeq 3′ mRNA-Seq Library Prep Kit (Lexogen, Inc., Austria) in accordance with the manufacturer's directions. 500 ng of the total RNA was hybridized with an oligo-dT primer including an Illumina-compatible sequence at the 5′ end of RNA, followed by reverse transcription. After degradation of the RNA template, a second strand was synthesized using a random primer including an Illumina-compatible linker sequence at the 5′ end thereof. Double-stranded libraries were purified using magnetic beads to remove all reaction components. The library was amplified in order to add the entire adapter sequence required for cluster production, and the completed cDNA library was purified from the PCR components.
# Sequencing was performed by high-throughput sequencing as single-end 75 sequencing using a NextSeq 500 (IIlumina, Inc., USA). Read count (RC) data was processed based on the quantile normalization method using EdgeR in R (R development Core Team, 2016) using Bioconductor (Gentleman et al., 2004). Gene classification was based on searches performed on DAVID (http://david.abcc.ncifcrf.gov/) and the Medline database (http://www.ncbi.nlm.nih.gov/).
# The extracted data were analyzed through normalization using Agilent GeneSpring GX 12.6.1 (Agilent technologies, CA, USA) to analyze the expression pattern of each gene.
# [3] = IC5 conc.: Acetone 5.38, 2-Butanone 22.27, 2-Pentanone 5.24, 2-Hexanone 14.82, 2-Heptanone 5.05 mM
# [4] = IC20 conc.: Acetone 71.90, 2-Butanone 106.21, 2-Pentanone 39.38, 2-Hexanone 52.51, 2-Heptanone 20.22 mM
structure (smiles),measurement,setting,value
"CCC(C)=O [2-Butanone, 2-butanone]",concentration (105) providing a survival rate (viability) of 95%,[1],22270 µM
same,concentration (1020) providing a survival rate (viability) of 80%,[1],106210 µM
same,Fold change ADRA2A (NM_000681),[2]; [3],0.185
same,Fold change ATRNL1 (NR_074088),[2]; [3],3.234
same,Fold change C12orf79 (NR_046159),[2]; [3],0.216
same,Fold change C14orf80 (NR_046159),[2]; [3],0.356
same,Fold change CALML3 (NM_001286399),[2]; [3],0.356
same,Fold change CCDC184 (NM_001013635),[2]; [3],2.379
same,Fold change CD37 (NM_001040031),[2]; [3],3.286
same,Fold change CDHR1 (NM_001171971),[2]; [3],0.470
same,Fold change CHL1 (NM_001253387),[2]; [3],0.274
same,Fold change COL4A3 (NM_000091),[2]; [3],2.264
same,Fold change CRLF2 (NM_022148),[2]; [3],0.359
same,Fold change CSF3R (NM_172313),[2]; [3],0.356
same,Fold change DNMBP-AS1 (NR_024130),[2]; [3],11.453
same,Fold change EGR1 (NM_001964),[2]; [3],0.422
same,Fold change GNA14 (NM_004297),[2]; [3],3.512
same,Fold change LOC728752 (NR_036504),[2]; [3],3.506
same,Fold change PAX8 (NM_003466),[2]; [3],6.636
same,Fold change PRRT3-AS1 (NR_046734),[2]; [3],2.207
same,Fold change RBP3 (NM_002900),[2]; [3],0.356
same,Fold change SEPT14 (NM_207366),[2]; [3],0.458
same,Fold change SERPINA12 (NM_001304461),[2]; [3],0.356
same,Fold change SLC13A4 (NM_012450),[2]; [3],7.697
same,Fold change SPOCK2 (NM_001244950),[2]; [3],3.020
same,Fold change TSPAN1 (NM_005727),[2]; [3],2.540
same,Fold change USP12-AB1 (NR_046647),[2]; [3],3.499
same,Fold change VIPR†-AS1 (NR_046654),[2]; [3],0.356
same,Fold change XIRP1 (NM_001198621),[2]; [3],0.356
same,Fold change ZFP69B (NM_023070),[2]; [3],4.676
same,Fold change ZNF432 (NM_014650),[2]; [3],2.326
same,Fold change ZNF487 (NR_026693),[2]; [3],0.356
same,Fold change ADRA2A (NM_000681),[2]; [4],0.184
same,Fold change ATRNL1 (NR_074088),[2]; [4],2.330
same,Fold change C12orf79 (NR_046159),[2]; [4],0.216
same,Fold change C14orf80 (NR_046159),[2]; [4],0.356
same,Fold change CALML3 (NM_001286399),[2]; [4],0.356
same,Fold change CCDC184 (NM_001013635),[2]; [4],6.647
same,Fold change CD37 (NM_001040031),[2]; [4],2.647
same,Fold change CDHR1 (NM_001171971),[2]; [4],0.222
same,Fold change CHL1 (NM_001253387),[2]; [4],0.268
same,Fold change COL4A3 (NM_000091),[2]; [4],3.577
same,Fold change CRLF2 (NM_022148),[2]; [4],0.359
same,Fold change CSF3R (NM_172313),[2]; [4],0.356
same,Fold change DNMBP-AS1 (NR_024130),[2]; [4],12.732
same,Fold change EGR1 (NM_001964),[2]; [4],0.404
same,Fold change GNA14 (NM_004297),[2]; [4],5.582
same,Fold change LOC728752 (NR_036504),[2]; [4],6.647
same,Fold change PAX8 (NM_003466),[2]; [4],2.233
same,Fold change PRRT3-AS1 (NR_046734),[2]; [4],2.147
same,Fold change RBP3 (NM_002900),[2]; [4],0.356
same,Fold change SEPT14 (NM_207366),[2]; [4],0.217
same,Fold change SERPINA12 (NM_001304461),[2]; [4],0.356
same,Fold change SLC13A4 (NM_012450),[2]; [4],8.571
same,Fold change SPOCK2 (NM_001244950),[2]; [4],8.426
same,Fold change TSPAN1 (NM_005727),[2]; [4],2.466
same,Fold change USP12-AB1 (NR_046647),[2]; [4],5.570
same,Fold change VIPR†-AS1 (NR_046654),[2]; [4],0.356
same,Fold change XIRP1 (NM_001198621),[2]; [4],0.356
same,Fold change ZFP69B (NM_023070),[2]; [4],2.942
same,Fold change ZNF432 (NM_014650),[2]; [4],6.342
same,Fold change ZNF487 (NR_026693),[2]; [4],0.356
